Patent publication US7456197B2, “Pyridinium cationic lipids as gene transfer agents” (The Texas A&M University System, priority 2003, dated 2008)

What was measured:
[1] = Critical (phase transition) temperature Tc by differential scanning calorimetry; type: physicochemical
Procedure, shortened: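 Phase transition temperature Tc of the cationic lipids measured by differential scanning calorimetry at a heating rate of 5 °C/minute.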

[2] = system: breast carcinoma MCF-7; experiment: Luciferase (pGL3) transfection efficiency of lipoplexes, MCF-7; type: cell-based; settings: optimized lipoplexes, Chol 1:1, FIG. 7
From the text: It is well known that specific cell types and cell lines may vary in their ability to be transfected. In addition to the NCI-H23 lung cancer cell line, we therefore tested our optimized formulation of 5AMyr/Chol 1:1 versus DOTAP/Chol 1:1 as reference on four other cell lines from tumors representing cancers of great importance to human health, as well as different tissues of origin: breast carcinomas MCF-7, MDA-Mb231, prostate carcinoma DU-145 and glioma SWB-95 (FIG. 7).
Dioleoylphosphatidylethanolamine (DOPE), cholesterol (CHOL), N-(2,3-dioleoyloxypropyl)-N,N,N-trimethylammonium chloride (DOTAP) were commercial products. The purity of the lipids was checked by thin layer chromatography and also by differential scanning calorimetry (DSC), which was also used for determining the critical temperature Tc. For the preparation of the liposomes a protocol optimized for this type of compounds was adopted as follows. The cationic lipid (with or without helper lipid) was dissolved in chloroform/methanol (2/1, v/v) to reach a final concentration of 1 mM for the charged species. […]
For the luciferase assay, 20 μL of cell lysate was aliquoted in a test tube and assessed directly using a luciferase assay kit from Promega by means of a luminometer.
The protein content was quantified using a bicinchoninic acid (BCA) assay. […]

**Q.** Which “Tc (critical temperature), Pure” value ([1]; pure lipid) does the source give for `CCCCCCCCCCCCCC(=O)OCC(COC(=O)CCCCCCCCCCCCC)[n+]1c(C)cc(C)cc1C.F[P-](F)(F)(F)(F)F` [Lipid 5AMyr, 1-(1,3-dimyristoyloxypropane-2-yl)-2,4,6-trimethylpyridinium hexafluorophosphate] here?
**A.** Its value is 67.8 °C.

**Q.** What about the “Tc (critical temperature), With DOPE (1:1 molar ratio)” value ([1]; with DOPE, 1:1 molar ratio) of the same compound?
**A.** Its value is 22.4 °C.

**Q.** What about the “Tc (critical temperature), With cholesterol (1:1 molar ratio)” value ([1]; with cholesterol, 1:1 molar ratio) of the same compound?
**A.** Its value is 64.8 °C.

**Q.** What about the “transfection efficiency (luciferase activity normalized for protein)” value [2] of the same compound?
**A.** The value was 206000 RLU/μg of protein.
